Tests used:
Experiment in all cases: Test C preemergence
blackgrass = type: in vivo, Alopecurus myosuroides; details: Alopecurus myosuroides, pre-emergence, preemergence, scale 0 (no effect) to 100 (complete control), read-out: Blackgrass plant response rating
Summary of the method: (§1)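 Preemergence: seeds sown in a loam soil–sand blend and sprayed with test chemical in a non-phytotoxic solvent mixture containing surfactant. Postemergence: plants at 2 to 18 cm (1- to 4-leaf stage) in peat-based medium, treated with the same formulation. Greenhouse 13 to 15 days, then visual rating 0 (no effect) to 100 (complete control).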

wheat, winter = type: in vivo, Triticum aestivum; details: Triticum aestivum, pre-emergence
Summary of the method: as §1

large (Lg) crabgrass = type: in vivo, Digitaria sanguinalis; details: Digitaria sanguinalis, pre-emergence
Summary of the method: as §1

giant foxtail = type: in vivo, Setaria faberii; details: Setaria faberi, pre-emergence
Summary of the method: as §1

lambsquarters = type: in vivo, Chenopodium album; details: Chenopodium album, pre-emergence
Summary of the method: as §1

yellow nutsedge = type: in vivo, Cyperus esculentus; details: Cyperus, pre-emergence
Summary of the method: as §1

pigweed = type: in vivo, Amaranthus retroflexus; details: Amaranthus retroflexus, pre-emergence
Summary of the method: as §1

ragweed = type: in vivo, Ambrosia elatior; details: Ambrosia artemisiifolia, pre-emergence
Summary of the method: as §1

soybean = type: in vivo, Glycine max; details: Glycine max, pre-emergence
Summary of the method: as §1

barnyardgrass = type: in vivo, Echinochloa crus-galli; details: Echinochloa crus-galli, pre-emergence
Summary of the method: as §1

oilseed rape = type: in vivo, Brassica napus; details: Brassica napus, pre-emergence
Summary of the method: as §1

waterhemp = type: in vivo, Amaranthus rudis; details: Amaranthus tuberculatus, pre-emergence
Summary of the method: as §1

velvetleaf = type: in vivo, Abutilon theophrasti; details: Abutilon theophrasti, pre-emergence
Summary of the method: as §1

N#Cc1cccc(Oc2ncc(Cl)cn2)c1-n1cc(Br)cn1 [Compound 52, 2-(4-bromo-1H-pyrazol-1-yl)-3-[(5-chloro-2-pyrimidinyl)oxy]benzonitrile]
pest or weed control at 62 g/ha (blackgrass; 62 g ai/ha): 85%
pest or weed control at 125 g/ha (blackgrass; 125 g ai/ha): 90%
pest or weed control at 250 g/ha (blackgrass; 250 g ai/ha): 90%
plant injury at 62 g/ha (wheat, winter; 62 g ai/ha, preemergence, scale 0 (no effect) to 100 (complete control), read-out: Wheat plant response rating): 0%
plant injury at 125 g/ha (wheat, winter; 125 g ai/ha, preemergence, scale 0 (no effect) to 100 (complete control), read-out: Wheat plant response rating): 30%
plant injury at 250 g/ha (wheat, winter; 250 g ai/ha, preemergence, scale 0 (no effect) to 100 (complete control), read-out: Wheat plant response rating): 45%
plant injury at 31 g/ha (wheat, winter; Preemergence, 31 g ai/ha, scale 0 to 100, 0 no effect, 100 complete control, read-out: Plant response rating, Wheat): 0%
pest or weed control at 62 g/ha (large (Lg) crabgrass; 62 g ai/ha, preemergence, scale 0 (no effect) to 100 (complete control), read-out: Crabgrass, Large plant response rating): 100%
pest or weed control at 125 g/ha (large (Lg) crabgrass; 125 g ai/ha, preemergence, scale 0 (no effect) to 100 (complete control), read-out: Crabgrass, Large plant response rating): 100%
pest or weed control at 250 g/ha (large (Lg) crabgrass; 250 g ai/ha, preemergence, scale 0 (no effect) to 100 (complete control), read-out: Crabgrass, Large plant response rating): 100%
pest or weed control at 31 g/ha (large (Lg) crabgrass; Preemergence, 31 g ai/ha, scale 0 to 100, 0 no effect, 100 complete control, read-out: Plant response rating, Crabgrass, Large): 100%
pest or weed control at 62 g/ha (giant foxtail; 62 g ai/ha, preemergence, scale 0 (no effect) to 100 (complete control), read-out: Foxtail, Giant plant response rating): 100%
pest or weed control at 125 g/ha (giant foxtail; 125 g ai/ha, preemergence, scale 0 (no effect) to 100 (complete control), read-out: Foxtail, Giant plant response rating): 100%
pest or weed control at 250 g/ha (giant foxtail; 250 g ai/ha, preemergence, scale 0 (no effect) to 100 (complete control), read-out: Foxtail, Giant plant response rating): 100%
pest or weed control at 31 g/ha (giant foxtail; Preemergence, 31 g ai/ha, scale 0 to 100, 0 no effect, 100 complete control, read-out: Plant response rating, Foxtail, Giant): 100%
pest or weed control at 62 g/ha (lambsquarters; 62 g ai/ha, preemergence, scale 0 (no effect) to 100 (complete control), read-out: Lambsquarters plant response rating): 100%
pest or weed control at 125 g/ha (lambsquarters; 125 g ai/ha, preemergence, scale 0 (no effect) to 100 (complete control), read-out: Lambsquarters plant response rating): 100%
pest or weed control at 250 g/ha (lambsquarters; 250 g ai/ha, preemergence, scale 0 (no effect) to 100 (complete control), read-out: Lambsquarters plant response rating): 100%
pest or weed control at 31 g/ha (lambsquarters; Preemergence, 31 g ai/ha, scale 0 to 100, 0 no effect, 100 complete control, read-out: Plant response rating, Lambsquarters): 100%
pest or weed control at 62 g/ha (yellow nutsedge; 62 g ai/ha, preemergence, scale 0 (no effect) to 100 (complete control), read-out: Nutsedge, Yellow plant response rating): 10%
pest or weed control at 125 g/ha (yellow nutsedge; 125 g ai/ha, preemergence, scale 0 (no effect) to 100 (complete control), read-out: Nutsedge, Yellow plant response rating): 40%
pest or weed control at 250 g/ha (yellow nutsedge; 250 g ai/ha, preemergence, scale 0 (no effect) to 100 (complete control), read-out: Nutsedge, Yellow plant response rating): 45%
pest or weed control at 31 g/ha (yellow nutsedge; Preemergence, 31 g ai/ha, scale 0 to 100, 0 no effect, 100 complete control, read-out: Plant response rating, Nutsedge, Yellow): 0%
pest or weed control at 62 g/ha (pigweed; 62 g ai/ha, preemergence, scale 0 (no effect) to 100 (complete control), read-out: Pigweed plant response rating): 100%
pest or weed control at 125 g/ha (pigweed; 125 g ai/ha, preemergence, scale 0 (no effect) to 100 (complete control), read-out: Pigweed plant response rating): 100%
pest or weed control at 250 g/ha (pigweed; 250 g ai/ha, preemergence, scale 0 (no effect) to 100 (complete control), read-out: Pigweed plant response rating): 100%
pest or weed control at 31 g/ha (pigweed; Preemergence, 31 g ai/ha, scale 0 to 100, 0 no effect, 100 complete control, read-out: Plant response rating, Pigweed): 100%
pest or weed control at 62 g/ha (ragweed; 62 g ai/ha, preemergence, scale 0 (no effect) to 100 (complete control), read-out: Ragweed plant response rating): 90%
pest or weed control at 125 g/ha (ragweed; 125 g ai/ha, preemergence, scale 0 (no effect) to 100 (complete control), read-out: Ragweed plant response rating): 95%
pest or weed control at 250 g/ha (ragweed; 250 g ai/ha, preemergence, scale 0 (no effect) to 100 (complete control), read-out: Ragweed plant response rating): 100%
pest or weed control at 31 g/ha (ragweed; Preemergence, 31 g ai/ha, scale 0 to 100, 0 no effect, 100 complete control, read-out: Plant response rating, Ragweed): 90%
plant injury at 62 g/ha (soybean; 62 g ai/ha, preemergence, scale 0 (no effect) to 100 (complete control), read-out: Soybean plant response rating): 85%
plant injury at 125 g/ha (soybean; 125 g ai/ha, preemergence, scale 0 (no effect) to 100 (complete control), read-out: Soybean plant response rating): 90%
plant injury at 250 g/ha (soybean; 250 g ai/ha, preemergence, scale 0 (no effect) to 100 (complete control), read-out: Soybean plant response rating): 90%
plant injury at 31 g/ha (soybean; Preemergence, 31 g ai/ha, scale 0 to 100, 0 no effect, 100 complete control, read-out: Plant response rating, Soybean): 5%
pest or weed control at 62 g/ha (barnyardgrass; 62 g ai/ha, preemergence, scale 0 (no effect) to 100 (complete control), read-out: Barnyardgrass plant response rating): 95%
pest or weed control at 125 g/ha (barnyardgrass; 125 g ai/ha, preemergence, scale 0 (no effect) to 100 (complete control), read-out: Barnyardgrass plant response rating): 100%
pest or weed control at 250 g/ha (barnyardgrass; 250 g ai/ha, preemergence, scale 0 (no effect) to 100 (complete control), read-out: Barnyardgrass plant response rating): 100%
pest or weed control at 31 g/ha (barnyardgrass; Preemergence, 31 g ai/ha, scale 0 to 100, 0 no effect, 100 complete control, read-out: Plant response rating, Barnyardgrass): 50%
plant injury at 62 g/ha (oilseed rape; 62 g ai/ha, preemergence, scale 0 (no effect) to 100 (complete control), read-out: Oilseed Rape plant response rating): 100%
plant injury at 125 g/ha (oilseed rape; 125 g ai/ha, preemergence, scale 0 (no effect) to 100 (complete control), read-out: Oilseed Rape plant response rating): 100%
plant injury at 250 g/ha (oilseed rape; 250 g ai/ha, preemergence, scale 0 (no effect) to 100 (complete control), read-out: Oilseed Rape plant response rating): 100%
plant injury at 31 g/ha (oilseed rape; Preemergence, 31 g ai/ha, scale 0 to 100, 0 no effect, 100 complete control, read-out: Plant response rating, Oilseed Rape): 100%
pest or weed control at 62 g/ha (waterhemp; 62 g ai/ha, preemergence, scale 0 (no effect) to 100 (complete control), read-out: Waterhemp plant response rating): 100%
pest or weed control at 125 g/ha (waterhemp; 125 g ai/ha, preemergence, scale 0 (no effect) to 100 (complete control), read-out: Waterhemp plant response rating): 100%
pest or weed control at 250 g/ha (waterhemp; 250 g ai/ha, preemergence, scale 0 (no effect) to 100 (complete control), read-out: Waterhemp plant response rating): 100%
pest or weed control at 31 g/ha (waterhemp; Preemergence, 31 g ai/ha, scale 0 to 100, 0 no effect, 100 complete control, read-out: Plant response rating, Waterhemp): 100%
pest or weed control at 62 g/ha (velvetleaf; 62 g ai/ha, preemergence, scale 0 (no effect) to 100 (complete control), read-out: Velvetleaf plant response rating): 100%
pest or weed control at 125 g/ha (velvetleaf; 125 g ai/ha, preemergence, scale 0 (no effect) to 100 (complete control), read-out: Velvetleaf plant response rating): 100%
pest or weed control at 250 g/ha (velvetleaf; 250 g ai/ha, preemergence, scale 0 (no effect) to 100 (complete control), read-out: Velvetleaf plant response rating): 100%
pest or weed control at 31 g/ha (velvetleaf; Preemergence, 31 g ai/ha, scale 0 to 100, 0 no effect, 100 complete control, read-out: Plant response rating, Velvetleaf): 75%
